These results are taken from patent US20230124862A1, “BISMUTH THIOL COMPOUNDS AND COMPOSITIONS AND METHODS OF TREATING MICROBIAL CO-INFECTIONS” (Microbion Corporation, priority 2020, published 2023).

Converted amounts (≈) assume the structure as drawn. “And” between values parts separate entries of the source, which are not always exact repeats. Equal values may be shown once. Read-outs that look alike come from different tables or passages of the source. Some results are limits rather than exact numbers.

The test system of assay [1] is Burkholderia cepacia complex. Briefly: Checkerboard FIC/FICI assay. It is filed as cell-based, Burkholderia spp.
Assay [2] has as its system P. aeruginosa. Briefly: Checkerboard FIC/FICI assay. The following applies: for FICB / MICB: by checkerboard; for Drug B MIC: Colistin alone (checkerboard with BisEDT). It counts as cell-based, Pseudomonas aeruginosa.
The test system of assay [3] is Candida krusei. Put plainly: Antifungal broth microdilution (Example 13). It is filed as cell-based. The following applies: for MIC2: 50% inhibition; for MIC0: complete inhibition. In general terms: Dilution methods test growth across graded concentrations, often in twofold steps.
Assay [4] deals with fungal pathogens. Put plainly: Antifungal activity, NIH/NIAID sponsored study. It counts as cell-based. The following applies: for Antifungal activity, MIC 50%: 50% endpoint; for Antifungal activity, MIC 100% / MIC: 100% endpoint.
For assay [5], the system named is Haemophilus influenzae. Briefly: Broth microdilution MIC, Haemophilus influenzae clinical isolates. It counts as cell-based.
Assay [6] concerns P. aeruginosa. Put plainly: Broth microdilution MIC (Example 10). It counts as cell-based, Pseudomonas aeruginosa. The following applies: initial MIC testing.
Setting [7] is: B. cepacia 546, Aztreonam in combination with BisEDT, by checkerboard.
The mark [8] stands for this setting: P. aeruginosa 6977, Aztreonam in combination with BisEDT.
Where [9] appears, read: C. krusei ATCC 14243, Susceptible.
Setting [10] is: C. krusei ATCC 96685, Susceptible.
Where [11] appears, read: C. krusei MMX 7125, Susceptible.
Setting [12] is: C. krusei MMX 7128, Susceptible.
[13] abbreviates: C. krusei MMX 7141, Susceptible.
Where [14] appears, read: C. krusei MMX 7155, Susceptible.
[15] abbreviates: C. krusei MMX 7563, Susceptible.
Setting [16] is: C. krusei MMX 9878, MICA-I, VORI-I.
Setting [17] is: P. aeruginosa 6322, Colistin in combination with BisEDT.
The mark [18] stands for this setting: P. aeruginosa 6977, Colistin in combination with BisEDT.
Where [19] appears, read: P. aeruginosa 7745, Colistin in combination with BisEDT.

Consider `C[C@H]1[C@H](NC(=O)/C(=N\OC(C)(C)C(=O)O)c2csc(N)n2)C(=O)N1S(=O)(=O)O` [Aztreonam], for which the FICB is 1 in assay [1] (B. cenocepacia 548, FIC of Aztreonam (Drug B) in combination with BisEDT); 1 in assay [1] (B. cenocepacia 813, FIC of Aztreonam (Drug B) in combination with BisEDT); 1 in assay [1] (setting [7]); 1 in assay [1] (B. cepacia 1793, FIC of Aztreonam (Drug B) in combination with BisEDT); 1 and 2 in assay [1] (B. multivorans 1795, FIC of Aztreonam (Drug B) in combination with BisEDT); 1 in assay [2] (setting [8]). In addition, the MICB in assay [1] (B. cenocepacia 548, MIC of Aztreonam (Drug B) in combination with BisEDT) is 64 µg/mL; in assay [1] (B. cenocepacia 813, MIC of Aztreonam (Drug B) in combination with BisEDT) it was 32 µg/mL; in assay [1] (setting [7]) it was 32 µg/mL; in assay [1] (B. cepacia 1793, MIC of Aztreonam (Drug B) in combination with BisEDT), 128 µg/mL; in assay [1] (B. multivorans 1795, MIC of Aztreonam (Drug B) in combination with BisEDT) it was 16 µg/mL and 32 µg/mL; in assay [2] (setting [8]), 64 µg/mL. In addition, in assay [1] (B. multivorans 1795, Aztreonam alone, panel with BisEDT, read-out: Drug B MIC), the MIC amounted to 16 µg/mL.

Consider `C1C[S][Bi]([S]CC[S][Bi]2[S]CC[S]2)[S]1` [BisEBT], for which the MIC2 in assay [3] (C. krusei ATCC 6258, MICA-I) was 0.5 µg/mL; in assay [3] (setting [9]), 0.5 µg/mL; in assay [3] (setting [10]), 0.25 µg/mL; in assay [3] (setting [11]), 0.5 µg/mL; in assay [3] (setting [12]), 0.5 µg/mL; in assay [3] (setting [13]) it was 0.5 µg/mL. Also, the MIC2 in assay [3] (C. krusei MMX 7153, MICA-R) stood at 0.5 µg/mL; in assay [3] (setting [14]), 0.5 µg/mL; in assay [3] (setting [15]) it was 0.5 µg/mL; in assay [3] (setting [16]), 0.5 µg/mL. The MIC0 in assay [3] (C. krusei ATCC 6258, MICA-I) was 1 µg/mL; in assay [3] (setting [9]) it was 1 µg/mL; in assay [3] (setting [10]), 0.5 µg/mL; in assay [3] (setting [11]) it was 1 µg/mL; in assay [3] (setting [12]), 1 µg/mL; in assay [3] (setting [13]), 1 µg/mL. Also, the MIC0 in assay [3] (C. krusei MMX 7153, MICA-R) stood at 1 µg/mL; in assay [3] (setting [14]) it was 1 µg/mL; in assay [3] (setting [15]), 1 µg/mL; in assay [3] (setting [16]) it was 1 µg/mL.

For the molecule `C1C[S][Bi]([S]CC[S][Bi]2[S]CC[S]2)[S]1` [BisEQT], the “Antifungal activity, MIC 50%” value in assay [4] (A. fumigatus AF1) stood at 8 µg/mL; in assay [4] (A. fumigatus AF2), 4 µg/mL; in assay [4] (A. fumigatus AF3) it was 4 µg/mL; in assay [4] (C. albicans CA1), 4 µg/mL; in assay [4] (C. albicans CA2), 2 µg/mL; in assay [4] (C. albicans CA3), 4 µg/mL. Also, the “Antifungal activity, MIC 50%” value turned out to be 4 µg/mL in assay [4] (C. auris Cau1); 2 µg/mL in assay [4] (C. auris Cau2); 4 µg/mL in assay [4] (C. auris Cau3); 1 µg/mL in assay [4] (C. krusei ATCC6258); 2 µg/mL in assay [4] (C. neoformans CN1); 4 µg/mL in assay [4] (C. neoformans CN2). Also, the “Antifungal activity, MIC 50%” value in assay [4] (C. neoformans CN3) stood at 4 µg/mL; in assay [4] (C. parapsilosis ATCC22019), 1 µg/mL; in assay [4] (P. variotii CLSI QC) it was 4 µg/mL; in assay [4] (R. arrhizus RA1) it was 8 µg/mL; in assay [4] (R. arrhizus RA2), 4 µg/mL; in assay [4] (R. arrhizus RA3), 4 µg/mL. Moreover, the “Antifungal activity, MIC 100%” value came to 16 µg/mL in assay [4] (A. fumigatus AF1); 16 µg/mL in assay [4] (A. fumigatus AF2); 16 µg/mL in assay [4] (A. fumigatus AF3); 8 µg/mL in assay [4] (C. albicans CA1); 8 µg/mL in assay [4] (C. albicans CA2); 16 µg/mL in assay [4] (C. albicans CA3). For the same molecule, the “Antifungal activity, MIC 100%” value in assay [4] (C. auris Cau1) was 16 µg/mL; in assay [4] (C. auris Cau2), 8 µg/mL; in assay [4] (C. auris Cau3), 8 µg/mL; in assay [4] (C. krusei ATCC6258) it was 4 µg/mL; in assay [4] (C. neoformans CN1), 8 µg/mL; in assay [4] (C. neoformans CN2) it was 8 µg/mL. The “Antifungal activity, MIC 100%” value in assay [4] (C. neoformans CN3) was 16 µg/mL; in assay [4] (C. parapsilosis ATCC22019), 4 µg/mL; in assay [4] (P. variotii CLSI QC), 16 µg/mL; in assay [4] (R. arrhizus RA1), 16 µg/mL; in assay [4] (R. arrhizus RA2), 8 µg/mL; in assay [4] (R. arrhizus RA3), 8 µg/mL.

Regarding `CO/N=C(\C(=O)N[C@@H]1C(=O)N2C(C(=O)O)=C(COC(N)=O)CS[C@H]12)c1ccco1` [CFA], the MIC in assay [5] (H. influenzae MMX 0797, BLNAR) was found to be 4 µg/mL (≈ 9.43 µM); in assay [5] (H. influenzae MMX 1224 (ATCC 49247)), 4 µg/mL (≈ 9.43 µM); in assay [5] (H. influenzae MMX 1302) it was 2 µg/mL (≈ 4.71 µM); in assay [5] (H. influenzae MMX 1304), 64 µg/mL (≈ 151 µM); in assay [5] (H. influenzae MMX 1740), 8 µg/mL (≈ 18.9 µM); in assay [5] (H. influenzae MMX 1741), 4 µg/mL (≈ 9.43 µM). For the same molecule, the MIC in assay [5] (H. influenzae MMX 2795, BLNAR) came to 1 µg/mL (≈ 2.36 µM); in assay [5] (H. influenzae MMX 2796, BLNAR) it was 4 µg/mL (≈ 9.43 µM); in assay [5] (H. influenzae MMX 2798, BLNAR), 4 µg/mL (≈ 9.43 µM); in assay [5] (H. influenzae MMX 2799, BLNAR) it was 8 µg/mL (≈ 18.9 µM); in assay [5] (H. influenzae MMX 5458) it was 16 µg/mL (≈ 37.7 µM); in assay [5] (H. influenzae MMX 5461), 8 µg/mL (≈ 18.9 µM). The MIC in assay [5] (H. influenzae MMX 5469) stood at 4 µg/mL (≈ 9.43 µM); in assay [5] (H. influenzae MMX 5494), 0.5 µg/mL (≈ 1.18 µM); in assay [5] (H. influenzae MMX 5495), 2 µg/mL (≈ 4.71 µM); in assay [5] (H. influenzae MMX 5499), 1 µg/mL (≈ 2.36 µM).

For `O=C(O)c1cn(C2CC2)c2cc(N3CCNCC3)c(F)cc2c1=O` [CIP], the MIC stood at 4 µg/mL (≈ 12.1 µM) in assay [6] (P. aeruginosa isolate 1553 (TOB-R, AMK-R, CIP-R)); 4 µg/mL (≈ 12.1 µM) in assay [6] (P. aeruginosa isolate 7745 (MEM-R, CIP-R, AZT-R)); 7 µg/mL (≈ 21.1 µM) in assay [6] (P. aeruginosa isolate 7762 (MEM-I, CIP-I)); 4 µg/mL (≈ 12.1 µM) in assay [6] (P. aeruginosa isolate 8798 (MEM-R, TOB-R, AMK-R, CIP-R, AZT-R, COL-R)); 1 µg/mL in assay [2] (isolate 103 (ATCC 25922), during FIC testing, each agent tested alone for QC, one replicate).

Regarding `CC[C@@H]([C@H](C)O)n1ncn(-c2ccc(N3CCN(c4ccc(OC[C@@H]5CO[C@@](Cn6cncn6)(c6ccc(F)cc6F)C5)cc4)CC3)cc2)c1=O` [Posaconazole], the MIC in assay [4] (Paecilomyces variotii, read-out: Antifungal activity, MIC 100%, P. variotii CLSI QC) was no more than 0.03 µg/mL; in assay [4] (Rhizopus arrhizus, read-out: Antifungal activity, MIC 100%, R. arrhizus RA1), 4 µg/mL (≈ 5.71 µM); in assay [4] (Rhizopus arrhizus, read-out: Antifungal activity, MIC 100%, R. arrhizus RA2), 0.06 µg/mL (≈ 0.0856 µM); in assay [4] (Rhizopus arrhizus, read-out: Antifungal activity, MIC 100%, R. arrhizus RA3), 0.125 µg/mL (≈ 0.178 µM).

As to `NC[C@H]1O[C@H](O[C@H]2[C@H](O)[C@@H](O[C@H]3O[C@H](CO)[C@@H](O)[C@H](N)[C@H]3O)[C@H](N)C[C@@H]2N)[C@H](N)C[C@@H]1O` [Topramycin], in assay [1] (B. cepacia 546, Topramycin in combination with BisEDT, by checkerboard), the FICB turned out to be 0.5.

Turning to Colistin, the FICB in assay [1] (B. multivorans 1795, FIC of Colistin (Drug B) in combination with BisEDT) is on record as 1; in assay [2] (setting [17]) it was 1; in assay [2] (setting [18]) it was 1; in assay [2] (setting [19]), 1. Also, the “Drug B MIC” value in assay [2] (P. aeruginosa 6322) is 0.5 µg/mL; in assay [2] (P. aeruginosa 6977) it was 1 µg/mL; in assay [2] (P. aeruginosa 7745) it was 0.5 µg/mL; in assay [2] (P. aeruginosa 9108), 0.0005 µg/mL; in assay [2] (isolate 8798 (organism name not given)), greater than 0.256 µg/mL. Also, the MICB amounted to 0.5 µg/mL in assay [2] (setting [17]), 1 µg/mL in assay [2] (setting [18]) and 0.5 µg/mL in assay [2] (setting [19]).
